Data from patent US5153352A, “Process for preparation of intermediates of carbocyclic nucleoside analogs” (priority 1990, dated 1992).
Converted amounts (≈) assume the structure as drawn.

Columns and labels:
[1] = cytotoxicity in ATH8 cells (method of Mitsuya and Broder); assay type: cell-based; conditions: human
From the text: The method of Mitsuya and Broder (AIDS: Modern Concepts and Therapeutic Challenges; Broder, S. ED.; Marcel Dekker, Inc.; New York, 1987; Chapter 18) was used to determine the in vitro anti-HIV-1 and anti-HIV-2 activity in ATH8 cells of some compounds of the invention. […]

[2] = tested on: Epstein-Barr virus (EBV); experiment: EBV genome copies in virus producing cells (P3HR-1); assay type: cell-based; conditions: P3HR-1 cells, 14 days, control 214
Protocol: Virus producing cells (P3HR-1) were exposed to test compound for 14 days and EBV genome copies per cell were determined by EBV specific cRNA DNA hybridization (Lin, et al., J. Virology 50 50-55 (1984). The results of this test are presented in Table 7.

[3] = tested on: Human Immunodificiency Virus (HIV-1); experiment: HIV-1 antigen inhibition in H9 cells; assay type: cell-based, HIV-1 (HTLV-IIIB); conditions: Human immunodeficiency virus 1, HIV-1, H9 cells; for IC50: HIV antigen levels
Protocol: Uninfected H9 cells at 4×10^5 viable cells/ml were infected with approximately 100 viral infectious units (ifu) for 2 hrs at 37° C. The viral infectious dose (ifu) was determined by the tissue culture infectious dose (TCID50) method for each stock of HIV-1 (HTLV-IIIB) and HIV-2. Cells were washed three times to remove residual virus, then resuspended in RPMI-1640 growth medium containing test compound at various concentrations, then transferred to 24 well tissue culture plates and grown at 5% CO2 at 37° C. Infected cells in media containing no drug were run simultaneously as a control. Aliquots of culture supernatants were removed at 4, 6 and 10 days and monitored for HIV antigen levels by the Abbott HIV 1 antigen enzyme immunoassay (HIVAG-1). Cell viability was also determined at these time points and cells were refed with media containing test compound (except for control wells). Anti-HIV activity is reported as the concentration of compound causing a 50% inhibition (IC50) in HIV antigen levels versus infected cells without test compound.

[4] = MTT cytotoxicity assay in MRC5 cells; assay type: cell-based; conditions: human
Protocol: Human diploid embryonic lung (MRC5) cells were grown in 35 mm wells of 6-well tissue culture plates. Subconfluent cell monolayers were rinsed with phosphate buffered saline (PBS) and were exposed to 0.5 ml/well of HCMV (strain AD169) suspension for 1.5 hours at 37° C. The virus suspension was diluted in MEM+2% fetal bovine serum (FBS) to yield a multiplicity of infection (MOI) of approximately 0.1 plaque forming units (PFU)/cell. Following the virus adsorption period, the inocula were removed and infected cell layers were rinsed with PBS. Aliquots (2.0 ml) of each test drug concentration (dissolved in MEM supplemented with 2% FBS) were dispensed into triplicate cell cultures: two virus infected cultures and one uninfected cytotoxicity control culture (exposed to medium without virus for 1.5 hours). Untreated virus infected control cultures and untreated, uninfected cell control cultures were fed with medium alone.
All cell culture fluids were replaced with fresh drug and medium 48 hours postinfection (p.i.).
Drug cytotoxicity was determined quantitatively by a method based on the reduction of the tetrazolium salt, 3-(4,5-dimethyl-thiazol-2-yl)-2,5-diphenyl tetrazolium bromide (MTT) by mitochondrial enzymes of viable host cells to MTT formazan (T. Mosmann, 1983). Drug cytotoxicity controls and cell controls were treated with MTT (dissolved in culture medium) followed by 20% SDS (in 0.02 N HCl) to dissolve the crystals of MTT formazan. The blue color of the MTT formazan was measured spectrophotometrically at 570 nm. Drug cytotoxicity was determined by comparing the absorbance (O.D.) of each drug cytotoxicity control with the mean O.D. of the cell control cultures and expressed as percent of control.

[5] = tested on: A549: Lung carcinoma; experiment: cytotoxic activity against cultured tumor cells, A549; assay type: cell-based; conditions: Homo sapiens, 72 h; A549, 3 days, MTT
[6] = cytotoxicity in uninfected PHA-stimulated human PBM cells; assay type: cell-based; conditions: uninfected PBMC, 6 days, read-out: Cytotoxicity in PBMC IC50
Protocol: Human peripheral blood mononuclear cells (PBMC) from healthy HIV-1 seronegative and hepatitis B virus seroneqative donors were isolated by Ficoll-Hypague discontinuous gradient centrifugation at 1,000×g for 30 minutes, washed twice in phosphate buffered saline (pH 7.2; PBS), and pelleted at 300×g for 10 minutes. Before infection, the cells were stimulated by phytohemagglutinin (PHA) at a concentration of 16.7 ug/ml for three days in RPMI 1640 medium supplemented with 15% heat-inactivated fetal calf serum, 1.5 mM L-glutamine, penicillin (100 U/ml), streptomycin (100 ug/ml) and 4 mM sodium bicarbonate buffer.
The test compounds were evaluated for their potential toxic effects on uninfected PHA-stimulated human PBM cells. The cells were cultured with and without test compound for 6 days at which time aliquots were counted for cell viability.

[7] = tested on: HSV-2; experiment: plaque reduction, HSV-2 in Vero cells; assay type: cell-based, Herpes simplex virus type 2; conditions: Human alphaherpesvirus 2; HSV-2, Vero, plaque reduction 50%; read-out: MIC50
Protocol: After the adsorption period, the infected cell monolayers were treated in duplicate with serial dilutions of the test compound. Duplicate cell controls containing medium alone and virus controls containing medium and virus were run simultaneously with the test compound. […] Plaques visible to the unaided eye were counted and the mean number of plaques in the duplicate wells for each compound concentration tested and for the untreated, virus infected controls were determined.

Structure (SMILES)	cytotoxicity at 1 µM ([1]; HIV-1 experiment) [%]	cytotoxicity at 10 µM ([1]; HIV-1 experiment) [%]	cytotoxicity at 1 µM ([1]; HIV-2 experiment) [%]	cytotoxicity at 10 µM ([1]; HIV-2 experiment) [%]	inhibition at 0.625 µM [3] [%]	inhibition at 2.5 µM [3] [%]	inhibition at 10 µM [3] [%]	IC50 [3] [µM]	viability ([4]; 3.2 ug/ml) [%]	viability ([4]; 10 ug/ml) [%]	viability ([4]; 32 ug/ml) [%]	IC50 [5] [µg/mL]	CC50 at 144 h [6] [µM]	other results
Nc1nc2c(ncn2C2CC(CO)C2CO)c(=O)[nH]1 (stereo not shown) [Example 1I, 9-(2',3'-Bis(hydroxymethyl)cyclobutyl)guanine]	0	0	11	11	19	75	88	1.1	100	100	100	94.6 (≈ 357 µM)	38.8	EBV genome copies/cell ([2]; 0.01 uM): 223 EBV genome copies/cell; EBV genome copies/cell ([2]; 0.10 uM): 181 EBV genome copies/cell; EBV genome copies/cell ([2]; 1.00 uM): 40 EBV genome copies/cell; EBV genome copies/cell ([2]; 5.00 uM): 12 EBV genome copies/cell; EBV genome copies/cell ([2]; 10.00 uM): 10 EBV genome copies/cell; inhibition at 0.312 µM ([3]; 0.312 uM): 0%; inhibition at 1.25 µM ([3]; 1.25 uM): 63%; viability ([4]; 1.0 ug/ml): 100%; EC50 [7]: 1 µg/mL (≈ 3.77 µM)
Nc1ncnc2c1ncn2C1CC(CO)C1CO (stereo not shown) [Example 4C, 9-(2',3'-Bis(hydroxymethyl)cyclobutyl)adenine]	12	33	9	15	0	62	98	2.1	95	90	67	49.1 (≈ 197 µM)	23	cytotoxicity at 100 µM ([1]; HIV-1 experiment, 100 uM): 34%; inhibition at 5 µM ([3]; 5 uM): 96%
